Structures are written as SMILES.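 Cells were grown in 96-well plates and exposed to each compound for 48 hours at five concentrations; endpoints were interpolated linearly between bracketing concentrations, or set to the highest concentration if not reached. GI50: concentration for 50% inhibition of growth. At the TGI there is no net growth.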

The test system of the first experiment is COLO 205 colon. The experiment in a line: NCI tumour cell line growth inhibition, 48 h.
Take `O=c1oc(-c2ccc(O)c(O)c2)cc2cccc(O)c12`: the TGI was more than 48.3 µM.

For the molecule `COc1cc2c(cc1-c1c(C)noc1C)cc(C)c(=O)n2Cc1ccccn1`, the GI50 is 0.566 µM and the TGI worked out at 22.2 µM.

In turn, `N#CC(C#N)=CNC(=S)c1ccncc1` registered a TGI of more than 100 µM.

For the molecule `C1=CC2=CC=CC3c4nc5ccc6ccccc6c5nc4C(=C1)C23` (stereo unspecified), the TGI was more than 100 µM.

In turn, `COc1ccc(C2(CC(C)O)SCCCS2)cc1` (stereo unspecified) had a TGI of more than 100 µM.

Molecule `Clc1ccc(-c2nn3c(-c4ccncc4)nnc3s2)cc1` came in with a TGI of more than 100 µM.

Regarding `COc1ccc(C(OCC2OC(n3cc(C)c(=O)[nH]c3=O)CC2n2cc(Cn3cc(F)c(=O)[nH]c3=O)nn2)(c2ccccc2)c2ccccc2)cc1` (stereo unspecified), the TGI was 27 µM.

As for `O=[N+]([O-])/C(C(Cl)=C(Cl)Cl)=C(\Nc1cccc2cccnc12)SCc1ccccc1`, the TGI is 33.5 µM.

In turn, `Oc1ccccc1/C=N/c1nc2cc3sc(/N=C/c4ccccc4O)nc3cc2s1` displayed a TGI of 20.7 µM.

`CCCCC1c2c([nH]c3ccccc23)C2C(=O)N(c3ccc(OC)cc3)C(=O)C2C1CCC` (stereo unspecified) registered a TGI of 6.34 µM.

The molecule `CCN(CC)CCOc1ccc(N2C(=O)c3cc(OC)c(OC)cc3C2=O)cc1` gave a TGI of more than 100 µM.

`C(=N\NC1=NCCCN1)/c1ccc2ccccc2c1` came in with a TGI of 19.3 µM.

The subject of another experiment is NCI-H23 lung. The experiment in a line: NCI tumour cell line growth inhibition, 48 h.
`O=P(c1ccccc1)(c1ccccc1)N1O[C@@H](c2ccccc2)C=C[C@H]1c1ccccc1` showed a TGI of 25.2 µM.

`CC(C)(C)NC(=O)/C(=C\Sc1ccccc1)c1ccc2c(c1)OCO2` gave a TGI of more than 100 µM.

As to `COC(=O)[C@]12CC[C@H]3CN(C(=O)OCc4ccccc4)[C@H]([C@H]31)[C@H](c1ccco1)N2S(=O)(=O)c1ccc(C)cc1`, the TGI came to 48.5 µM.

Regarding `O=C1C[C@H](Sc2ccccc2)C2(OCCO2)[C@@H](Sc2ccccc2)C1`, the TGI came to 6.08 µM.

Consider `CCCNC(=O)CCC(C)[C@H]1CCC2C3C(C[C@H](OC(C)=O)[C@@]21C)[C@@]1(C)CCC2(C[C@H]1C[C@H]3OC(C)=O)OOC1(CCC(C)CC1)OO2` (stereo partly specified), for which the TGI came to 18.7 µM.

Turning to `CCN(C(=S)N[C@@H](Cc1ccccc1)C(=O)N[C@@H](CC(C)C)C(=O)OC)c1ccccc1`, the TGI was more than 100 µM.

Consider `CCCn1c(CN(Cc2nc3ccccc3n2CCC)Cc2nc3ccccc3n2CCC)nc2ccccc21`, for which the TGI is more than 49.6 µM.

The molecule `COc1cc(NS(C)(=O)=O)ccc1N1Cc2cnc3ccc4[nH]c(C)cc1c4c23` displayed a TGI of more than 100 µM.

Regarding `CC12CC(=O)C3C(C(=O)C1)C32C` (stereo unspecified), the TGI is more than 100 µM.

Turning to `CC(=O)N/N=C1\NC(=O)C[C@H]2[C@@H]3CC=C4C[C@@H](OC(C)=O)CC[C@]4(C)[C@H]3CC[C@]12C`, the TGI was more than 100 µM.

In turn, `C=C[C@@H]1C(CO)=CCC2[C@H]1CCC1C(C)(C)C(=O)CC[C@]21C` (stereo partly specified) registered a TGI of more than 100 µM.

Take `COc1ccc2cc3c4cc5c(cc4cc[n+]3cc2c1OC)OCO5`: the TGI amounted to 65.1 µM.

Take `C/C(CC1C2CCCC1C2)=N\NC(N)=O` (stereo unspecified): the TGI is more than 100 µM.

For `O=c1oc(-c2ccc(O)c(O)c2)cc2cccc(O)c12`, the TGI was determined as 53.6 µM.

As to `COc1cc2c(cc1-c1c(C)noc1C)cc(C)c(=O)n2Cc1ccccn1`, the GI50 is 3.4 µM and the TGI is more than 100 µM.

In turn, `N#CC(C#N)=CNC(=S)c1ccncc1` returned a TGI of more than 100 µM.

Molecule `C1=CC2=CC=CC3c4nc5ccc6ccccc6c5nc4C(=C1)C23` (stereo unspecified) yielded a TGI of more than 100 µM.

On to `COc1ccc(C2(CC(C)O)SCCCS2)cc1` (stereo unspecified), for which the TGI is more than 100 µM.

`Clc1ccc(-c2nn3c(-c4ccncc4)nnc3s2)cc1` displayed a TGI of more than 100 µM.

`COc1ccc(C(OCC2OC(n3cc(C)c(=O)[nH]c3=O)CC2n2cc(Cn3cc(F)c(=O)[nH]c3=O)nn2)(c2ccccc2)c2ccccc2)cc1` (stereo unspecified) registered a TGI of 27.9 µM.

Take `O=[N+]([O-])/C(C(Cl)=C(Cl)Cl)=C(\Nc1cccc2cccnc12)SCc1ccccc1`: the TGI came out at 32.7 µM.

Molecule `Oc1ccccc1/C=N/c1nc2cc3sc(/N=C/c4ccccc4O)nc3cc2s1` yielded a TGI of more than 100 µM.

In the case of `CCCCC1c2c([nH]c3ccccc23)C2C(=O)N(c3ccc(OC)cc3)C(=O)C2C1CCC` (stereo unspecified), the TGI is more than 10 µM.

`CCN(CC)CCOc1ccc(N2C(=O)c3cc(OC)c(OC)cc3C2=O)cc1`: the TGI is more than 100 µM.

Molecule `C(=N\NC1=NCCCN1)/c1ccc2ccccc2c1` came in with a TGI of 36.6 µM.

A further experiment deals with UACC-62 melanoma. The experiment in a line: NCI tumour cell line growth inhibition, 48 h.
`O=P(c1ccccc1)(c1ccccc1)N1O[C@@H](c2ccccc2)C=C[C@H]1c1ccccc1` registered a TGI of 19.5 µM.

On to `CC(C)(C)NC(=O)/C(=C\Sc1ccccc1)c1ccc2c(c1)OCO2`, for which the TGI amounted to 57.9 µM.

For the molecule `COC(=O)[C@]12CC[C@H]3CN(C(=O)OCc4ccccc4)[C@H]([C@H]31)[C@H](c1ccco1)N2S(=O)(=O)c1ccc(C)cc1`, the TGI was determined as 36.1 µM.

On to `O=C1C[C@H](Sc2ccccc2)C2(OCCO2)[C@@H](Sc2ccccc2)C1`, for which the TGI came to 4.63 µM.

The molecule `CCCNC(=O)CCC(C)[C@H]1CCC2C3C(C[C@H](OC(C)=O)[C@@]21C)[C@@]1(C)CCC2(C[C@H]1C[C@H]3OC(C)=O)OOC1(CCC(C)CC1)OO2` (stereo partly specified) showed a TGI of more than 100 µM.

Molecule `CCN(C(=S)N[C@@H](Cc1ccccc1)C(=O)N[C@@H](CC(C)C)C(=O)OC)c1ccccc1` gave a TGI of more than 100 µM.

`CCCn1c(CN(Cc2nc3ccccc3n2CCC)Cc2nc3ccccc3n2CCC)nc2ccccc21` had a TGI of 18.3 µM.

The molecule `COc1cc(NS(C)(=O)=O)ccc1N1Cc2cnc3ccc4[nH]c(C)cc1c4c23` gave a TGI of more than 100 µM.

The molecule `CC12CC(=O)C3C(C(=O)C1)C32C` (stereo unspecified) registered a TGI of more than 100 µM.

`CC(=O)N/N=C1\NC(=O)C[C@H]2[C@@H]3CC=C4C[C@@H](OC(C)=O)CC[C@]4(C)[C@H]3CC[C@]12C` showed a TGI of 59 µM.

With `C=C[C@@H]1C(CO)=CCC2[C@H]1CCC1C(C)(C)C(=O)CC[C@]21C` (stereo partly specified), the TGI is more than 100 µM.

`COc1ccc2cc3c4cc5c(cc4cc[n+]3cc2c1OC)OCO5` yielded a TGI of 27.9 µM.

`C/C(CC1C2CCCC1C2)=N\NC(N)=O` (stereo unspecified) came in with a TGI of more than 100 µM.

As for `O=c1oc(-c2ccc(O)c(O)c2)cc2cccc(O)c12`, the GI50 was 16.6 µM and the TGI was 37.3 µM.

With `COc1cc2c(cc1-c1c(C)noc1C)cc(C)c(=O)n2Cc1ccccn1`, the GI50 was 0.407 µM and the TGI came out at 15 µM.

`N#CC(C#N)=CNC(=S)c1ccncc1`: the TGI was more than 100 µM.

In turn, `C1=CC2=CC=CC3c4nc5ccc6ccccc6c5nc4C(=C1)C23` (stereo unspecified) yielded a TGI of more than 100 µM.

`COc1ccc(C2(CC(C)O)SCCCS2)cc1` (stereo unspecified) showed a TGI of more than 100 µM.

Molecule `Clc1ccc(-c2nn3c(-c4ccncc4)nnc3s2)cc1` registered a TGI of more than 100 µM.

Regarding `COc1ccc(C(OCC2OC(n3cc(C)c(=O)[nH]c3=O)CC2n2cc(Cn3cc(F)c(=O)[nH]c3=O)nn2)(c2ccccc2)c2ccccc2)cc1` (stereo unspecified), the TGI is 29.2 µM.

On to `O=[N+]([O-])/C(C(Cl)=C(Cl)Cl)=C(\Nc1cccc2cccnc12)SCc1ccccc1`, for which the TGI amounted to 63.7 µM.

`Oc1ccccc1/C=N/c1nc2cc3sc(/N=C/c4ccccc4O)nc3cc2s1`: the TGI is more than 100 µM.

`CCCCC1c2c([nH]c3ccccc23)C2C(=O)N(c3ccc(OC)cc3)C(=O)C2C1CCC` (stereo unspecified) displayed a TGI of 6.77 µM.

`CCN(CC)CCOc1ccc(N2C(=O)c3cc(OC)c(OC)cc3C2=O)cc1` showed a TGI of more than 100 µM.

For `C(=N\NC1=NCCCN1)/c1ccc2ccccc2c1`, the TGI amounted to 30 µM.

These data come from PubChem BioAssay (NCI).
